{
  "source": "patent US20230151432A1",
  "about": "“KIF18A INHIBITORS FOR TREATMENT OF NEOPLASTIC DISEASES” (AMGEN INC., priority 2020, published 2023)",
  "key": {"[1]": {"tested_on": "BT-549 TNBC cells", "experiment": "Western blot and cGAS/γH2A.X immunostaining (Example 8)", "format": "cell-based, human", "settings": "0.2 μM, 48 hours", "protocol": "In order to analyze the effects on mitosis, BT-549 TNBC cells were seeded into 6-well plates at a density of 100,000 per well in 3 replicate wells in 4 mL of complete growth media. The next day, cells were treated with DMSO, KIF18A inhibitor #1 (Compound C11, 0.5 μM), or KIF18A inhibitor #2 (Compound C9, 0.01 μM) in 4 mL of complete media at a final DMSO concentration of 0.5%. After 48 hours, cell lysates were prepared for each treatment group (combined media and cells from 3 wells) using Minute™ Total Protein Extraction kit (SD-001, Invent Biotechnologies) lysis conditions according to manufactures protocol, supplemented with protease inhibitor cocktail (cOmplete™, Roche) and phospatase inhibitors (PhosphoStop, Roche). Primary antibodies included rabbit anti-p-Histone H3 (serine-10) (06-570, Millipore, 1: 2000), mouse anti-γH2A.X (serine-139) (05-636, Millipore, 1: 2000), mouse anti-cleaved-PARP (cl-PARP) (#51-900017, BD Pharmingen, 1:500), mouse anti-BubR1 (612503, BD Pharmingen, 1:5000), mouse anti-total HEC1 (ab3613, ABCAM, 1: 1000), rabbit anti-pHEC1(serine-55) (GTX70017, Genetex, 1: 500), and rabbit anti-GAPDH (2118, Cell Signaling, 1:10,000).\nAlso, cGAS and γH2A.X (serine-139) immunostaining in BT-549 TNBC cells was carried out. […] Wide-field images were captured using 40×objective on upright Nikon Eclipse NI-E epi-fluorescence microscope running Elements software."}, "[2]": {"biological_target": "T1, Recombinant human KIF18A (1-467 His-tagged) protein (Homo sapiens, UniProt Q8NI77)", "T1 construct": "Recombinant human KIF18A (1-467 His-tagged) protein; His; made in house", "T1 sequence (Q8NI77 1-467)": "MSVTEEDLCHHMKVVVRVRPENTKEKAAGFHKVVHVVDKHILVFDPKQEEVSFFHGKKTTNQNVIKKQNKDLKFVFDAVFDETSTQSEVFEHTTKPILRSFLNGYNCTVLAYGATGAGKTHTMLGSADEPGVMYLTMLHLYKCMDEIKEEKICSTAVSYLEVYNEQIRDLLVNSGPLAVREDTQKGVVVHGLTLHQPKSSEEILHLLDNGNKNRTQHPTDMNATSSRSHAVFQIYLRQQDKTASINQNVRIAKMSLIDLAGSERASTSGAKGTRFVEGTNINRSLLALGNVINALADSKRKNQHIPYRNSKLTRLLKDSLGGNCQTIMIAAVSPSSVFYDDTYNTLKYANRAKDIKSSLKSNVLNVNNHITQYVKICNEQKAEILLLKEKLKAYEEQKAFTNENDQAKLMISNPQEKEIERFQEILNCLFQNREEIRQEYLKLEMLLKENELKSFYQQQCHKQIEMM", "T1 sequence (P02550 whole entry partner)": "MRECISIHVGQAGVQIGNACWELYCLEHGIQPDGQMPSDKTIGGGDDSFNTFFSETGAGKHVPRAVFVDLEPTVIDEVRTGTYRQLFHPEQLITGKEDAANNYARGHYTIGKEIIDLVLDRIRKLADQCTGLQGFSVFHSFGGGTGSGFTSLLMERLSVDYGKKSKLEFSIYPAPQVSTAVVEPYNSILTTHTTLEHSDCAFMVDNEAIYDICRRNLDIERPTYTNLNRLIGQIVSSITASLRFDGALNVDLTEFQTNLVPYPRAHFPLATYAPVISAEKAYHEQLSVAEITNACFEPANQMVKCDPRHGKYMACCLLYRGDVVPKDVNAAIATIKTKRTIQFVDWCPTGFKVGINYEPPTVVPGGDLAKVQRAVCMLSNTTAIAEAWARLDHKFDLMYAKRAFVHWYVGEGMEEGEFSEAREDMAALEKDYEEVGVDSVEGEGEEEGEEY", "T1 sequence (P02554 whole entry partner)": "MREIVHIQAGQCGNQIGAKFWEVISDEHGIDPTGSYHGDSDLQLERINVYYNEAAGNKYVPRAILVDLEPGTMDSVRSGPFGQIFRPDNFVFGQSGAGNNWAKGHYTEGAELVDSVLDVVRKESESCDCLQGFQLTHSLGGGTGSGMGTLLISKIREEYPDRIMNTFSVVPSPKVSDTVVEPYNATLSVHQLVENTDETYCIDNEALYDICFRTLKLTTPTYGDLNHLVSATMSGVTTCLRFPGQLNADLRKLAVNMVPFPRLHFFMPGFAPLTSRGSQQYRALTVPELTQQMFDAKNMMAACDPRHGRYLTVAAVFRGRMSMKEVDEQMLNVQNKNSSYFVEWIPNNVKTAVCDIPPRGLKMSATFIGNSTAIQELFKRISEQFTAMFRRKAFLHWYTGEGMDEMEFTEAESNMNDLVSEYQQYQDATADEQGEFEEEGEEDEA", "experiment": "KIF18A Enzyme Assay (microtubule-stimulated ATPase activity, ADP-Glo)", "format": "biochemical", "settings": "30 nM KIF18A, 75 μM ATP", "protocol": "KIF18A Enzyme Assay: Microtubule-stimulated ATPase activity assay was used to measure KIF18A enzyme activity after treatment with compound. Compounds were 2-fold serially diluted in DMSO (Sigma Inc) over 22-point concentration range. […] The assay measures ADP formed from the ATPase reaction.\nConcentration-response curve-fitting and IC50 determination was performed using Genedata Screener Software (Standard 15.0.1, Genedata Inc) with a four-parameter logistic regression fit model."}, "[3]": {"tested_on": "CAL-51 TNBC cells", "experiment": "Centrosome immunofluorescence imaging and cl-PARP Western blotting (Example 6)", "format": "cell-based, human", "settings": "0.5 μM; 24 h imaging, 48 h Western; TP53 wild-type", "protocol": "(§1) To analyze the effects of a KIF18A inhibitor on mitotic centrosome/chromosome features and apoptosis of cancer cells, centrosome features in CAL-51 and MDA-MB-157 TNBC cells were analyzed by an immunofluorescence imaging analysis. Cells were seeded into Cell Carrier Ultra 96-well Polystyrene plate (PerkinElmer) in 200 μL of complete media and grown. […] Cells were washed twice with 200 μL Wash Buffer (1×PBS/0.5% BSA, Rockland Immunochemicals). Cells are stained with 100 μL anti-CETN3 mouse antibody (1:2000, H00001070-M01, Abnova) and anti-pericentrin rabbit antibody (1:2000, ab4448-100, Abcam) in 200 μL of Wash Buffer and incubated overnight at 4° C. Cells were washed twice with 200 μL Wash Buffer. Cells were stained with 100 μL secondary antibodies [goat anti-mouse IgG-alexa-488 (1:1000, A1 1029, Invitrogen) and goat anti-rabbit IgG-alexa-647 (1:1000, A21244, Invitrogen) in Wash Buffer for 2 hours at room temperature protected for light. Cells were washed twice followed by addition of 100 μL Wash Buffer containing Hoechst 33342 DNA dye (2 μg/mL). Cells were imaged on a PerkinElmer Ultraview Vox dual spinning disc confocal microscope using a 60× oil immersion objective with laser excitation wavelengths of 405 nm (Hoechst), 488 nm (alexa-488), and 647 nm (alexa-647). Representative maximal projection images were collected for mitotic objects from each treatment well. […]"}, "[4]": {"tested_on": "MDA-MB-157 TNBC cells", "experiment": "Centrosome immunofluorescence imaging and cl-PARP Western blotting (Example 6)", "format": "cell-based, human", "settings": "0.5 μM; 24 h imaging, 48 h Western; TP53 mutant, CCNE1 amplified", "protocol": "as §1"}, "[5]": {"tested_on": "five KIF18A inhibitor-sensitive cancer cell lines", "experiment": "6-day cell growth assay with re-plating in drug-free media", "format": "cell-based, human", "protocol": "To better understand the durability of response after KIF18A inhibitor treatment, all five KIF18A inhibitor-sensitive cancer cell lines were treated with DMSO or Compound C11 in a 6-day cell growth assay, where the surviving cells were washed, collected, counted, and re-plated in drug-free growth media and cultured for additional 7 to 9 days. MCF-7 cells treated with a CDK 4/6 inhibitor was included as a cytostatic comparator."}, "[6]": {"tested_on": "p-Histone H3 in OVCAR-3 HGSOC tumor xenografts", "experiment": "Tumor pharmacodynamic p-Histone H3 MSD assay", "format": "in vivo, mouse", "settings": "3, 10, 30, 100 mg/kg; tumor collected 24 hours post-treatment", "method": "Female athymic nude mice were injected with 5×10^6 OVCAR-3 cells in 0.1 mL subcutaneously in the right flank. After tumors were established (average tumor volume of 450 to 750 mm^3), animals were randomized into 5 treatment groups (vehicle alone, KIF18A inhibitor at 3, 10, 30, or 100 mg/kg) with 3 animals per group. Tumor and blood plasma were collected 24 hours post-treatment for pharmacokinetic analysis and tumor for pharmacodynamic analysis. Preparations of tumor protein lysates from snap frozen, pulverized, and lysed and processed using EpiQuik Total Histone Extraction Kit (OP-0006 Epigentek, Farmingdale, N.Y.) protocol. […] Lysates normalized for total protein per well were loaded onto Meso Scale Discovery (MSD) electrochemiluminescent immunoassay plates at 30 μg/well in lysis buffer a processed of pHH3 MSD analysis according to the manufacturer's protocol for the single-plex MSD assays using phospho-Histone H3 (serine-10) antibody (pHH3) and analyzed on a Sector Imager S16000 luminescence detection reader (MSD, Gaithersburg, Md.). Lysates were normalized for total protein and pHH3 fold induction represents the group average raw MSD value divided by the average raw MSD value of the vehicle treated group. […] The fold induction in pHH3 is noted for each KIF18A inhibitor treatment group relative to mean baseline pHH3 signal for vehicle group. […]"}},
  "data": [
    {"smiles": "CC(C)(C)NS(=O)(=O)c1cccc(NC(=O)c2ccc(S(=O)(=O)NC(C)(C)C)cc2N2CCC3(CC2)CC3)c1", "note": "[Compound C9, 4-(N-(tert-butyl)sulfamoyl)-N-(3-(N-(tert-butyl)sulfamoyl)phenyl)-2-(6-azaspiro[2.5]octan-6-yl)benzamide]", "values": [
      {"measurement": "cGAS and γH2A.X staining of cytoplasmic micronuclei", "setting": "[1]", "value": "increase in DNA damage and cGAS positive micronuclei"}
    ]},
    {"smiles": "CC(C)(CO)Nc1ccc(C(=O)Nc2cccc(S(=O)(=O)C3CCCC3)c2)c(N2CCC3(CC2)CC3)n1", "note": "[Compound C11, N-(3-(cyclopentylsulfonyl)phenyl)-6-((1-hydroxy-2-methylpropan-2-yl)amino)-2-(6-azaspiro[2.5]octan-6-yl)nicotinamide]", "values": [
      {"measurement": "IC50", "setting": "[2]", "value": 41, "unit": "nM"},
      {"measurement": "mitotic cell centrosome features and apoptosis", "setting": "[3]", "value": "no changes in centrosome features or apoptosis"},
      {"measurement": "mitotic cell centrosome features and apoptosis", "setting": "[4]", "value": "selectively induced alterations in mitotic cell centrosome features"},
      {"measurement": "cell growth and colony formation", "setting": "[5]; 6-day treatment", "value": "significant decrease in cell growth and colony formation"},
      {"measurement": "cell growth potential after drug withdrawal relative to DMSO control", "setting": "[5]; re-plated in drug-free media, additional 7 to 9 days", "value": "marked reduction cell growth potential"}
    ]},
    {"smiles": "Cc1cc(NC(=O)c2ccc(NS(=O)(=O)CCO)cc2N2CCC3(CC2)CC3)nc(N2CCC(F)(F)CC2)n1", "note": "[Compound C14, N-(2-(4,4-Difluoropiperidin-1-yl)-6-methylpyrimidin-4-yl)-4-((2-hydroxyethyl)sulfonamido)-2-(6-azaspiro[2.5]octan-6-yl)benzamide]", "values": [
      {"measurement": "p-Histone H3 mitotic marker levels in tumor", "setting": "[6]", "value": "dose-dependent increase"}
    ]}
  ]
}
